“Also recorded” adds a separate entry of the source.
Experiments:
[1] = test system: Glioblastoma cell lines; details: literature; cited from earlier work
[2] = target: P-glycoprotein efflux pumps (Homo sapiens, UniProt P08183); details: literature; cited from earlier work
[3] = Drug detection in cryosections of brain tissues of tumor-bearing mice (immunohistochemistry, confocal); details: drug fluorescence
Description: Immunohistochemistry: For histologic analysis, brain tissues from control and drug-treated tumor-bearing mice were harvested, snap frozen in optimal cutting temperature (OCT) compound and stored at −80° C. Cryostat sections were placed on slides and fixed in zinc-buffered formalin. Slides were blocked with 5% goat serum in 1% BSA followed by overnight incubation with primary antibodies against CD31 (102402, Biolegend, San Diego, Calif.), Ki-67 (ab156956, Abcam, Cambridge, Mass.), Vimentin (ab92547, Abcam), cleaved-Caspase-3 (CP229B, Biocare Medical), and GFAP (NB300-141, Novus Biologicals, Littleton, Colo.). Slides were then incubated with primary antibody source-specific secondary antibodies conjugated to Alexa Fluor 488 or 635 and DAN as a nuclear counterstain. The detection fluorophores used were limited to those around the inherent fluorescence spectra of doxorubicin (λex=480 nm, λem=550-590 nm) (22876313) to avoid bleed-through and enable co-detection of the drug with respect to certain antigens. Epifluorescence photomicrographs were captured at 100× and 400× magnification using an FV1000 confocal microscope (Olympus of America, Center Valley, Pa.) equipped with multi-Argon, 405, 559, and 635 diodes. Quantitative analysis was performed with Slidebook software (Intelligent Imaging Innovations, Denver, Colo.).

[4] = test system: glioblastoma growing in the brain; details: literature; cited from earlier work
[5] = test system: U87-luc glioma cells; experiment: Intracranial U87-luc glioblastoma xenograft in mice, Example 1 (bioluminescent imaging, survival); type: in vivo; details: for difference in tumor growth between 8 days and 22 days within the group: aldoxorubicin p>0.05, doxorubicin p<0.05; for survival time compared with vehicle-treated mice (Kaplan-Meier): result in words, aldoxorubicin also vs doxorubicin-treated group
Description: Intracranial implantation of U87-luc glioma cells in mice: A U87MG subline, U87-luc with a luciferase reporter gene was used for establishing intracranial human glioblastoma tumors. Female BALB/c (nu/nu) mice, 6-8 weeks of age, were anesthetized with a ketamine/xylazine cocktail solution. Animals were secured in a Harvard Apparatus stereotaxic head frame, a 1 cm midline scalp incision was made, and 5×10^5 cells in 5 μL serum-free DMEM were injected into the left striatum (coordinates: 2.5 mm lateral and 0.5 mm posterior to the bregma) through a burr hole in the skull using a 10 μl Hamilton syringe to deliver tumor cells to a 3.5 mm intraparenchymal depth. The burr hole in the skull was sealed with bone wax and the incision closed using wound glue. Tumor growth was evaluated by bioluminescent imaging.
Aldoxorubicin treatment of mice: The study consisted of 8 vehicle-treated control mice (group C), 8 doxorubicin-treated mice (group D), and 8 aldoxorubicin-treated mice (group A). Treatment was initiated twelve days after intracranial implantation of glioblastoma multiforme (GBM) cells. Vehicle (10 mM sodium phosphate, 5% D-(+)-glucose, pH 6.4) or aldoxorubicin was administered intravenously for a total of six injections (i.e., 12, 19, 26, 42, 50, and 56, days after cell implantation). All the doses were ˜75% of the maximum tolerated dose (MTD) of 32 mg/kg/inj in mice except that the dose given after 50 days of cell implantation was 50% of the MTD. Doxorubicin was administered intravenously for a total of two injections (i.e., 12 and 19 days after cell implantation) with ˜75% of the MTD of 8 mg/kg/inj. Both the drugs and the vehicle were administered using an injection volume of 0.15 ml.
In vivo imaging of intracranial tumors: Intracranial tumor growth was quantified by bioluminescent imaging using an in vivo imaging system (Xenogen, Palo Alto, Calif.). All mice were given an IP injection of 100 μl of 30 mg/ml D-luciferin (PerkinElmer) suspended in DPBS 10 minutes before imaging to provide a substrate for the luciferase enzyme. Prior to imaging, mice were anesthetized with inhalation of isoflurane gas. Images were captured using the Xenogen Ivis 200 imaging system and quantified with Living Image 4.1 software from Xenogen for a region of interest that encompassed the head of the mouse. Image intensities were expressed as photons/sec/cm^2/sr.
Statistical Analysis: The log-rank test was used to create Kaplan-Meier survival curves to compare survival between control and drug-treated mice using the Statistical Analysis Software of SAS Institute, Inc., Cary, N.C. Differences between groups were assessed using the unpaired Student's t test. AR values are shown as the mean±standard deviation. A p value≤0.05 was considered statistically significant.

[6] = literature; cited from earlier work
[7] = Aldoxorubicin/doxorubicin detection in brain tumors by stereomicroscope epifluorescence; type: in vivo, mice; details: 24 h following the last injection; epifluorescence of whole brains
Description: Aldoxorubicin/doxorubicin detection in brain tumors: Tumor-bearing mice were given intravenous injections of aldoxorubicin or doxorubicin as described above in Example 1. Mice were euthanized 24 h following the last injection. Brains were harvested and imaged using an MVX10 stereomicroscope (Olympus of America) equipped for brightfield and epifluorescence with filters encompassing doxorubicin-specific wavelengths to visualize drug accumulation.

[8] = Maximum tolerated dose in mice; type: in vivo; details: intravenous
[9] = test system: U87-luc glioma cells; experiment: Intracranial U87-luc glioblastoma xenograft in mice, Example 2 (bioluminescent imaging, survival); type: in vivo
Description: Female mice (6-8 weeks of age) were implanted intracranially with U87-luc subline with luciferase reporter gene to establish human glioblastoma tumors. Tumor growth was evaluated by bioluminescent imaging using D-luciferin substrate. 8 mice were treated with aldoxorubicin and 8 were treated with phosphate buffer saline (vehicle). Treatment started 9 days after implantation of the GBM cells. Aldoxorubicin or vehicle was administered i.v. once a week for three weeks (9, 16, and 23 days after cell implantation). The first two doses of aldoxorubicin were 75% and the third dose was 50% of the MTD of 32 mg/kg/injection in mice.

[10] = Aldoxorubicin retention in brain tumors and surrounding brain tissue by HPLC; type: in vivo, mice; details: i.v. 24 mg/kg, 6 and 24 h after injection
Description: (§1) HPLC System and Conditions: The HPLC system used was an Agilent 1100 Series (Wilmington, Del., USA) equipped with a scanning fluorescent detector with excitation and emission wavelengths set at 480 and 560 nm, respectively. Agilent Chemstation software was used for data acquisition. Separation was achieved on a Waters Spherisorb ODS2 column (4 mm×250 mm, 5 μm) fitted with a guard cartridge (BDS-Hypersil-C18, 5 μM). Elution was performed with mobile phase comprised of 65% 50 mM monosodium phosphate, pH 2.2, and 35% acetonitrile. A constant flow rate of 1.25 ml/min was used for the separation. The column was set to 28° C. and the injection volume was 25 μl.
Sample preparation: For quantification of aldoxorubicin in brain tissue and brain tumors, mice were euthanized by CO2 inhalation 6 and 24 h after aldoxorubicin injection (24 mg/kg/inj), brains were harvested and tumors were resected. The harvested tissues were stored at −80° C. until analysis.
Frozen samples were thawed at room temperature and homogenized in sterile saline using a PowerGen Model 125 homogenizer (Fisher Scientific) to obtain final tissue concentrations (w/v) of 150 mg/ml. Perchloric acid (35%, v/v) was then added to a […] aliquot followed by 25 μl of mobile phase. […] In the tissue samples analyzed, aldoxorubicin eluted with the retention time of doxorubicin.

[11] = Plasma and tissue distribution by HPLC in intracranial tumor-bearing mice; type: in vivo
Description: as §1, with “An” for “The HPLC system used was an”, “Series HPLC System” for “Series”, “having” for “equipped with”, “respectively, was used.” for “respectively.”, “containing” for “comprised of”, “65%” for “65% 50 mM”
Sample preparation: Aldoxorubicin, 24 mg/kg/inj (75% of the MTD), was administered in intracranial GBM tumor-bearing mice through tail vein injection, and after 4, 8, 16, and 24 h after injection, mice (3 animals at each time point) were euthanized by CO2 gas. Blood samples were collected by heart puncture in heparinized tubes, and centrifuged for plasma separation. Immediately after blood sampling, organs (brain, heart, kidney liver and lung) were surgically removed. The plasma and tissues were stored at −80° C. until analysis.
Frozen samples were thawed at room temperature and homogenized in sterile saline using a PowerGen Model 125 homogenizer (Fisher Scientific) to obtain final tissue concentrations (w/v) of 150 mg/ml for the liver and brain; 125 mg/ml for the lung, heart and muscle; and 100 mg/ml for kidney. Perchloric acid (35%, v/v) was added to a 20 μl aliquot of plasma or tissue samples followed by 25 μl of mobile phase. The samples were vortexed followed by centrifugation at 10,000×g for 10 min. and 25 μl of the supernatant was applied to the HPLC column.

[12] = administered intravenously, intracranial human GBM tumors
[13] = 22 days after implantation, aldoxorubicin treatment for 2 weeks, radiance
[14] = i.v. 24 mg/kg (~75% of the MTD)

Sequence of P-glycoprotein efflux pumps (P08183 whole entry): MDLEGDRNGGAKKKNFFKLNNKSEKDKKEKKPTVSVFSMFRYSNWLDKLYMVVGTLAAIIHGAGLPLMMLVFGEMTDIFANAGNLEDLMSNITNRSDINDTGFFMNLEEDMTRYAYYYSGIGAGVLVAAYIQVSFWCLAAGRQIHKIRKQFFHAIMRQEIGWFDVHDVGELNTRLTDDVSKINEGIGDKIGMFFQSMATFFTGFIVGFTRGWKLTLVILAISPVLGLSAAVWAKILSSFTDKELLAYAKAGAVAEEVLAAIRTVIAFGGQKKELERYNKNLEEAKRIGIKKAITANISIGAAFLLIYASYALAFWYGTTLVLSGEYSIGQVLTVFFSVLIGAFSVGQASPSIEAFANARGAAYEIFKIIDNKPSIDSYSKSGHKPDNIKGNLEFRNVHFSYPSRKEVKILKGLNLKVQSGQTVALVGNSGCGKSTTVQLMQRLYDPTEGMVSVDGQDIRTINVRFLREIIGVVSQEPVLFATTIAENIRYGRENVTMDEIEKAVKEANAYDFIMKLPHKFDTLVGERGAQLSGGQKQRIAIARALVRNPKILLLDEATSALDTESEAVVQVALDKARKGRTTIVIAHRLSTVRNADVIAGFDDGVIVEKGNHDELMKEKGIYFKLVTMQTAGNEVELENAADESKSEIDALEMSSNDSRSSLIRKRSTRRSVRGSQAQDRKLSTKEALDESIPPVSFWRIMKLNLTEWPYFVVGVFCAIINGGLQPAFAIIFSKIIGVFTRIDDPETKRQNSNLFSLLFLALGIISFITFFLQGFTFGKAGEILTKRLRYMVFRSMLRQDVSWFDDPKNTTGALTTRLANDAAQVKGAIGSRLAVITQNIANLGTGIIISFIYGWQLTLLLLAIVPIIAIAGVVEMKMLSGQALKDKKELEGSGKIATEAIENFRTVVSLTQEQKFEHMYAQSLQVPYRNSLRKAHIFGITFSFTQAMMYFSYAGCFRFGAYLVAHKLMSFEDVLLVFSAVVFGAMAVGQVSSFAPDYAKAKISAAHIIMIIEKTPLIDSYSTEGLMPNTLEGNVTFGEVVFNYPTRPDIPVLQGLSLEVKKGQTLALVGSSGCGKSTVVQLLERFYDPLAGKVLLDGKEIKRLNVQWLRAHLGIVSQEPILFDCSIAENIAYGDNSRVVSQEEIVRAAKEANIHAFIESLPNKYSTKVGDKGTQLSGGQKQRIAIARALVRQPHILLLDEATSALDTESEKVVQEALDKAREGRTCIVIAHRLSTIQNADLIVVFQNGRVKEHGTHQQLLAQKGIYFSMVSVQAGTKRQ

## COc1cccc2c1C(=O)c1c(O)c3c(c(O)c1C2=O)C[C@@](O)(C(=O)CO)C[C@@H]3O[C@H]1C[C@H](N)[C@H](O)[C@H](C)O1 [doxorubicin, reference compound]
[1]
  effect on glioblastoma cell lines: driven to apoptosis following growth arrest
[2]
  P-glycoprotein efflux pump substrate: substrate of the P-glycoprotein efflux pumps
[3]
  accumulation in brain tumor and normal brain tissue: not found in any appreciable amount in either the tumor or normal brain
[4]
  effect on glioblastoma growing in the brain: no effect
[5]; group of 8 mice
  time after tumor implantation within which all animals died: ≤ 34 days
[5]; in 22 days, group of 8 mice
  animals died: 2
[5]; radiance
  difference in tumor growth between 8 days and 22 days within the group: a relative difference in tumor growth
[5]
  survival time compared with vehicle-treated mice (Kaplan-Meier): no difference in the survival time; also recorded: no difference in the survival curves
[6]
  ability to cross the BBB: lacks the ability to cross the BBB
  free concentration in glioma tissues: below effective levels
[7]
  accumulation in glioblastoma tumors: not doxorubicin accumulates
[8]
  maximum tolerated dose (MTD): 8 mg/kg/inj

## COc1cccc2c1C(=O)c1c(O)c3c(c(O)c1C2=O)C[C@@](O)(/C(CO)=N/NC(=O)CCCCCN1C(=O)C=CC1=O)C[C@@H]3OC1CC(N)C(O)C(C)O1.Cl (some centres unmarked) [aldoxorubicin]
[3]
  accumulation in brain tumor and normal brain tissue: accumulates in the brain tumor but not in normal brain tissue
[9]; Day 29
  mice with tumor regrowth: 2
[9]; Day 29, group of 8 mice
  mice dead: 1
[9]; Day 33
  other mice with tumor regrown: 4
[9]; Day 33, group of 8 mice
  mice dead: 3
[9]; [12]
  overall antitumor result: induces tumor regression and increases survival
[9]; at 21 days, group of 8 mice
  mice with detectable tumor: 1
[9]; result in words
  survival compared with vehicle (Kaplan-Meier): survived longer
[10]
  retention in tumor tissues relative to surrounding brain tissues: 3- to 4 fold
[5]; [13]
  average tumor size relative to the control group: 28%
  average tumor size relative to the doxorubicin treatment group: 40%
[5]; 34 days, group of 8 mice
  survival of animals 34 days after tumor implantation: remained alive
[5]; [12]
  overall antitumor result: induces tumor regression and significantly increases survival
[5]; after 41 days
  animals still alive: seven of the eight
[5]; radiance
  difference in tumor growth between 8 days and 22 days within the group: no relative difference in tumor growth
[5]
  survival time compared with vehicle-treated mice (Kaplan-Meier): increased survival times; also recorded: survived a longer time
[7]
  accumulation in glioblastoma tumors: accumulates in glioblastoma tumors
[11]; from 4 h to 24 h, total brain tissue of tumor-bearing mice
  levels in the brain over time: remained almost same
[11]; [14]
  plasma concentration relative to that in the brain: more than 200 fold
  plasma concentration relative to the mean concentration in liver, heart, lung and kidney: more than 20 fold
[11]; plasma and other organs except brain, i.v. 24 mg/kg (~75% of the MTD)
  time of highest drug concentration: 4 h
[11]; plasma and other tissues except the brain
  time to reach nearly 50% of its concentration: 20 h
[8]
  maximum tolerated dose (MTD): 32 mg/kg/inj

From patent US10881678B2, “Cytotoxic agents for the treatment of cancer” (CytRx Corporation, priority 2013, dated 2021)
